Tests used:
[1] = Physical compatibility studies (mixtures in vials, visual); format: physicochemical; conditions: for compatibility with VDPA copolymer: in the presence of VDPA copolymer
Description: A first set of samples was made by combining Didecyldimethylammonium chloride (DDAC) Ammonium Quaternary Cationic Surfactant, and Tributyl Tetradecyl Phosphonium Chloride (TTPC). These ingredients were combined in a 20 mL borosilicate vial with a plastic cap to a total volume of 10 mLs so that the final concentration of DDAC was 5 wt. % active ingredient and the final concentration of TTPC was 1 wt. % active ingredient. The total volume was achieved by mixing with tap water (WTW). Samples were mixed, capped, and shaken vigorously and allowed to sit at room temperature for up to 24 hours. […] All weight percent values in the examples are wt. % active ingredient.
Another test sample consisted of 20 wt. % THPS, 2 wt. % VDPA copolymer biopenetrant, 4 wt. % DDAC, 4 wt. % TTPC, and 35 wt. % Ethylene Glycol Monobutyl Ether (EGMBE, which was used as a mutual solvent) (wt. % active ingredients) and was mixed as were the samples of Example 1 and brought to a total volume of 13.9 mLs with tap water (WTW).
(§1) Two additional samples were made. One was TTPC aqueous solution (50 wt. % a.i.) which was TTPC alone with the balance water (labelled TTPC). The other sample was made of 95 wt. % TTPC aqueous solution (50 wt. % a.i.) combined with a 5 wt. % VDPA copolymer aqueous solution (50 wt. % a.i.)(labelled TTPC+ESL). Thus, the final concentration on an active ingredient basis was 47.5% wt. % TTPC and 2.5 wt. % VDPA copolymer with the balance water. This comparison was made to determine the compatibility of the mixture without mutual solvent.

[2] = Storage stability of TTPC+ESL mixture at different temperatures; format: physicochemical; conditions: −25° C.
From the text: as §1
However, the sample was frozen at −25° C. TTPC was also frozen at −25 C.

Pseudomonas aeruginosa = experiment: Biocidal efficacy study, Modified Robbins Device culture/biofilm; format: cell-based; conditions: 100 ppm dosed, FIG. 4
Description: To test biocidal efficacy of TTPC in the presence of VDPA anionic copolymer two additional samples were made. One was 50 wt. % TTPC (a.i.) alone with the balance water (labelled TTPC). The other was TTPC combined with VDPA copolymer with the balance water (labelled TTPC A) which was 47.5% TTPC (a.i.) and 2.5% VDPA copolymer biopenetrant. A standard biofilm was grown with Pseudomonas aeruginosa, a known biofilm former and General Heterotrophic Bacteria (GHB), and treated with either the TTPC or TTPC A Series samples. Pseudomonas aeruginosa was cultured in a media of tryptone soy broth and grown at room temperature with gentle stirring. This culture solution was slowly passed through a Modified Robbins Device (MRD) from Tyler Research for approximately 6 weeks to establish a robust biofilm. Once the film was established, 100 ppm of TTPC Series or TTPC A Series was dosed to the biofilms and the efficacy of the biocide on the microorganisms was measured as shown in FIG. 4.

state of sample at low temperature [2]	Molecule	compatibility with VDPA copolymer [1]	efficacy against planktonic bacteria (Pseudomonas aeruginosa)	physical compatibility / appearance in tap water ([1]; balance tap water (WTW), room temperature, up to 24 hours)	solubility in water ([1]; water)
–	alkyldimethylbenzylammonium chloride [ADBAC]	will precipitate	–	–	–
frozen	CCCCCCCCCCCCCC[P+](CCCC)(CCCC)CCCC.Cl [TTPC, tributyl-tetradecylphosphonium chloride]	–	effective	–	–
–	CCCCCCCCCC[N+](C)(C)CCCCCCCCCC.[Cl-] [DDAC, Didecyldimethylammonium chloride]	will precipitate	–	some cloudiness	sparingly soluble in water

— patent US20200299155A1, “BIOCIDAL COMPOSITIONS INCLUDING A PHOSPHONIUM QUATERNARY CATIONIC SURFACTANT AND METHODS FOR USING SAME” (Rhodia Operations, priority 2019, published 2020)
